Tests used:
[1] = tested on: SN12C; assay: Concentration for 50% cell kill against renal cancer SN12C cell line was determined; assay type: functional; settings: Homo sapiens, read-out: LC50 (the source's name)
[2] = tested on: DU-145; assay: Concentration for 50% cell kill against prostate cancerDU-145 cell line was determined; assay type: functional; settings: Homo sapiens, read-out: LC50 (the source's name)
[3] = tested on: PC-3; assay: The compound was evaluated for cytotoxicity against PC-3 prostate cancer cell line; assay type: functional; settings: Homo sapiens
[4] = tested on: MDA-N; assay: Cytotoxicity exhibited by the compound for total growth inhibition of breast cancer MDA-N cell line; assay type: functional; settings: Homo sapiens
[5] = tested on: HCT-116; assay: Concentration for 50% cell kill against colon cancer HCT116 cell line was determined; assay type: functional; settings: Homo sapiens, read-out: LC50 (the source's name)
[6] = tested on: HL-60; assay: Concentration for 50% cell kill against leukemia HL-60 (TB) cell line was determined; assay type: functional; settings: Homo sapiens, read-out: LC50 (the source's name)
[7] = tested on: SNB-75; assay: Concentration for 50% cell kill against CNS cancer SNB-75 cell line was determined; assay type: functional; settings: Homo sapiens, read-out: LC50 (the source's name)
[8] = tested on: IGROV-1; assay: Effective dose to show cytotoxicity against ovarian cancer IGROV 1 cell line was determined; assay type: functional; settings: Homo sapiens, read-out: ED50 (the source's name)
[9] = tested on: K562; assay: Concentration for 50% cell kill against leukemia K-562 cell line was determined; assay type: functional; settings: Homo sapiens, read-out: LC50 (the source's name)
[10] = tested on: Malme-3M; assay: Effective dose to show cytotoxicity against melanoma MALME-3M cell line was determined; assay type: functional; settings: Homo sapiens, read-out: ED50 (the source's name)
[11] = tested on: SNB-19; assay: Cytotoxicity exhibited by the compound for total growth inhibition of CNS cancer SNB-19 cell line; assay type: functional; settings: Homo sapiens
[12] = tested on: T47D; assay: Cytotoxicity exhibited by the compound for total growth inhibition of breast cancer T-47D cell line; assay type: functional; settings: Homo sapiens
[13] = tested on: SN12C; assay: Cytotoxicity exhibited by the compound for total growth inhibition of renal cancer SN12C cell line; assay type: functional; settings: Homo sapiens
[14] = tested on: SN12C; assay: Effective dose to show cytotoxicity against renal cancer SN12C cell line was determined; assay type: functional; settings: Homo sapiens, read-out: ED50 (the source's name)
[15] = tested on: MDA-MB-453; assay: Concentration for 50% cell kill against breast cancer MDA-MB-435 cell line was determined; assay type: functional; settings: Homo sapiens, read-out: LC50 (the source's name)
[16] = tested on: K562; assay: Cytotoxicity exhibited by the compound for total growth inhibition of leukemia K-562 cell line; assay type: functional; settings: Homo sapiens
[17] = tested on: RPMI-8226; assay: Effective dose to show cytotoxicity against leukemia RPMI-8226 cell line was determined; assay type: functional; settings: Homo sapiens, read-out: ED50 (the source's name)
[18] = tested on: RPMI-8226; assay: Concentration for 50% cell kill against leukemia RPMI-8226 cell line was determined; assay type: functional; settings: Homo sapiens, read-out: LC50 (the source's name)
[19] = tested on: COLO 205; assay: Concentration for 50% cell kill against colon cancer COLO 205 cell line was determined; assay type: functional; settings: Homo sapiens, read-out: LC50 (the source's name)
[20] = tested on: U-251; assay: Concentration for 50% cell kill against CNS cancer U251 cell line was determined; assay type: functional; settings: Homo sapiens, read-out: LC50 (the source's name)
[21] = tested on: OVCAR-3; assay: Concentration for 50% cell kill against ovarian cancerOVCAR-3 cell line was determined; assay type: functional; settings: Homo sapiens, read-out: LC50 (the source's name)
[22] = tested on: MDA-MB-435 (Homo sapiens); assay: Cytotoxicity exhibited by the compound for total growth inhibition of breast cancer MDA-MB-435 cell line
[23] = tested on: OVCAR-8; assay: Effective dose to show cytotoxicity against ovarian cancer OVCAR-8 cell line was determined; assay type: functional; settings: Homo sapiens, read-out: ED50 (the source's name)
[24] = tested on: NCI-H522; assay: Concentration for 50% cell kill against non-small cell lung cancer NCI-H522 cell line was determined; assay type: functional; settings: Homo sapiens, read-out: LC50 (the source's name)
[25] = tested on: OVCAR-8; assay: Cytotoxicity exhibited by the compound for total growth inhibition of ovarian cancer OVCAR-8 cell line; assay type: functional; settings: Homo sapiens
[26] = tested on: OVCAR-3; assay: Effective dose to show cytotoxicity against ovarian cancer OVCAR-3 cell line was determined; assay type: functional; settings: Homo sapiens, read-out: ED50 (the source's name)
[27] = tested on: MOLT-4; assay: Cytotoxicity exhibited by the compound for total growth inhibition of leukemia MOLT-4 cell line; assay type: functional; settings: Homo sapiens
[28] = tested on: NCI-H322M; assay: Concentration for 50% cell kill against non-small cell lung cancer NCI-H322M cell line was determined; assay type: functional; settings: Homo sapiens, read-out: LC50 (the source's name)
[29] = tested on: SNB-75; assay: Cytotoxicity exhibited by the compound for total growth inhibition of CNS cancer SNB-75 cell line; assay type: functional; settings: Homo sapiens
[30] = tested on: NCI-H522; assay: Effective dose to show cytotoxicity against non-small cell lung cancer NCI-H522 cell line was determined; assay type: functional; settings: Homo sapiens, read-out: ED50 (the source's name)
[31] = tested on: NCI-H23; assay: Concentration for 50% cell kill against non-small cell lung cancer NCI-H23 cell line was determined; assay type: functional; settings: Homo sapiens, read-out: LC50 (the source's name)
[32] = tested on: PC-3; assay: Cytotoxicity exhibited by the compound for total growth inhibition of prostate cancer PC-3 cell line; assay type: functional; settings: Homo sapiens
[33] = tested on: SNB-19; assay: Effective dose to show cytotoxicity against CNS cancer SNB-19 cell line was determined; assay type: functional; settings: Homo sapiens, read-out: ED50 (the source's name)
[34] = tested on: CAKI-1; assay: Cytotoxicity exhibited by the compound for total growth inhibition of renal cancer CAKI-1 cell line; assay type: functional; settings: Homo sapiens
[35] = tested on: MOLT-4; assay: Concentration for 50% cell kill against leukemia MOLT-4 cell line was determined; assay type: functional; settings: Homo sapiens, read-out: LC50 (the source's name)
[36] = tested on: T47D; assay: Effective dose to show cytotoxicity against breast cancer T-47D cell line was determined; assay type: functional; settings: Homo sapiens, read-out: ED50 (the source's name)
[37] = tested on: IGROV-1; assay: Cytotoxicity exhibited by the compound for total growth inhibition of ovarian cancer IGROV 1 cell line; assay type: functional; settings: Homo sapiens
[38] = tested on: CCRF-CEM; assay: Effective dose to show cytotoxicity against leukemia CCRF-CEM cell line was determined; assay type: functional; settings: Homo sapiens, read-out: ED50 (the source's name)
[39] = tested on: MDA-MB-435 (Homo sapiens); assay: Effective dose to show cytotoxicity against breast cancer MDA-MB-435 cell line was determined; settings: read-out: ED50 (the source's name)
[40] = tested on: COLO 205; assay: Effective dose to show cytotoxicity against colon cancer COLO 205 cell line was determined; assay type: functional; settings: Homo sapiens, read-out: ED50 (the source's name)
[41] = tested on: SNB-19; assay: Concentration for 50% cell kill against CNS cancer SNB-19 cell line was determined; assay type: functional; settings: Homo sapiens, read-out: LC50 (the source's name)
[42] = tested on: Malme-3M; assay: Cytotoxicity exhibited by the compound for total growth inhibition of melanoma MALME-3M cell line; assay type: functional; settings: Homo sapiens
[43] = tested on: MDA-N; assay: Effective dose to show cytotoxicity against breast cancer MDA-N cell line was determined; assay type: functional; settings: Homo sapiens, read-out: ED50 (the source's name)
[44] = tested on: LOX IMVI; assay: Effective dose to show cytotoxicity against melanomaLOX IMVI cell line was determined; assay type: functional; settings: Homo sapiens, read-out: ED50 (the source's name)
[45] = tested on: NCI-H322M; assay: Cytotoxicity exhibited by the compound for total growth inhibition of non-small cell lung cancer NCI-H322M cell line; assay type: functional; settings: Homo sapiens
[46] = tested on: RPMI-8226; assay: Cytotoxicity exhibited by the compound for total growth inhibition of leukemia RPMI-8226 cell line; assay type: functional; settings: Homo sapiens
[47] = tested on: T47D; assay: Concentration for 50% cell kill against breast cancer T-47D cell line was determined; assay type: functional; settings: Homo sapiens, read-out: LC50 (the source's name)

Compound: Cc1c2ccncc2c(C)c2c1[nH]c1ccc(CO)cc12
- CC50 [1]: 1.91 µM
- CC50 [2]: 35 µM
- GI50 [3]: 0.45 µM
- TGI [4]: 1.69 µM
- CC50 [5]: > 100 µM
- CC50 [6]: 0.9 µM
- CC50 [7]: 14.9 µM
- EC50 [8]: 0.18 µM
- CC50 [9]: > 100 µM
- EC50 [10]: 0.64 µM
- TGI [11]: 11.5 µM
- TGI [12]: 18.4 µM
- TGI [13]: 3.47 µM
- EC50 [14]: 0.22 µM
- CC50 [15]: 6.02 µM
- TGI [16]: 0.11 µM
- EC50 [17]: 0.03 µM
- CC50 [18]: 5.57 µM
- CC50 [19]: 10.2 µM
- CC50 [20]: > 100 µM
- CC50 [21]: 46.2 µM
- TGI [22]: 1.61 µM
- EC50 [23]: 0.42 µM
- CC50 [24]: > 100 µM
- TGI [25]: 11.3 µM
- EC50 [26]: 0.7 µM
- TGI [27]: 0.04 µM
- CC50 [28]: 35.3 µM
- TGI [29]: 2.63 µM
- EC50 [30]: 0.3 µM
- CC50 [31]: 79 µM
- TGI [32]: 3.6 µM
- EC50 [33]: 0.21 µM
- TGI [34]: 13.4 µM
- CC50 [35]: 4.09 µM
- EC50 [36]: 1.42 µM
- TGI [37]: 11.7 µM
- EC50 [38]: 0.06 µM
- EC50 [39]: 0.24 µM
- EC50 [40]: 0.24 µM
- CC50 [41]: 56.2 µM
- TGI [42]: 7.35 µM
- EC50 [43]: 0.35 µM
- EC50 [44]: 0.37 µM
- TGI [45]: 11.5 µM
- TGI [46]: 0.22 µM
- CC50 [47]: 78.2 µM
